Counter-ions that a name gives are not always drawn.

`CCOCc1nc2c(N)nc3cc(/C=C/C(=O)OC)ccc3c2n1CCCCN1CCCS1(=O)=O` [Example 9, Methyl(2E)-3-[4-amino-1-[4-(1,1-dioxidoisothiazolidin-2-yl)butyl]-2-(ethoxymethyl)-1H-imidazo[4,5-c]quinolin-7-yl]prop-2-enoate] gave a melting point of 162 to 163 °C.

As for `CCc1nc2c(N)nc3cc(/C=C/C(=O)N4CCOCC4)ccc3c2n1CC1CCOCC1` [Example 130, 2-Ethyl-7-[(1E)-3-morpholin-4-yl-3-oxoprop-1-enyl]-1-(tetrahydro-2H-pyran-4-ylmethyl)-1H-imidazo[4,5-c]quinolin-4-amine], the melting point was > 260 °C.

For the molecule `CCCNC(=O)NCCCCc1ccc2c(c1)nc(N)c1nc(COCC)n(CCCOC(C)C)c12` [Example 6, N-{4-[4-Amino-2-ethoxymethyl-1-(3-isopropxypropyl)-1H-imidazo[4,5-c]quinolin-7-yl]butyl}-N′-propylurea], the melting point fell in the range of 134.5 to 135.5 °C.

In turn, `CCc1nc2c(N)nc3cc(/C=C/C(=O)OC)ccc3c2n1CC(C)(C)O` [Example 17, Methyl(2E)-3-[4-amino-2-ethyl-1-(2-hydroxy-2-methylpropyl)-1H-imidazo[4,5-c]quinolin-7-yl]prop-2-enoate] gave a melting point of 238 to 240 °C.

`COCc1nc2c(N)nc3cc(CCC(=O)N4CCS(=O)(=O)CC4)ccc3c2n1CC(C)(C)O` [Example 107, 1-[4-Amino-7-[3-(1,1-dioxidothiomorpholin-4-yl)-3-oxopropyl]-2-(methoxymethyl)-1H-imidazo[4,5-c]quinolin-1-yl]-2-methylpropan-2-ol] showed a melting point of 190 to 192 °C.

`CCc1nc2c(N)nc3cc(CCCNS(C)(=O)=O)ccc3c2n1CC1CCOCC1` [Example 124, N-{3-[4-Amino-2-ethyl-1-(tetrahydro-2H-pyran-4-ylmethyl)-1H-imidazo[4,5-c]quinolin-7-yl]propyl}methanesulfonamide] yielded a melting point of 168 to 170 °C.

`CCc1nc2c(N)nc3cc(CCCN)ccc3c2n1CC1CCOCC1` [Example 123, 7-(3-Aminopropyl)-2-ethyl-1-(tetrahydro-2H-pyran-4-ylmethyl)-1H-imidazo[4,5-c]quinolin-4-amine]: the melting point lay in the range of 217 to 220 °C.

`COCc1nc2c(N)nc3cc(CCC(N)=O)ccc3c2n1CC(C)(C)O` [Example 113, 3-[4-Amino-1-(2-hydroxy-2-methylpropyl)-2-(methoxymethyl)-1H-imidazo[4,5-c]quinolin-7-yl]propanamide] showed a melting point of 228 to 230 °C.

As to `COC(=O)/C=C/c1ccc2c(c1)nc(N)c1ncn(CC(C)(C)O)c12` [Example 15, Methyl(2E)-3-[4-amino-1-(2-hydroxy-2-methylpropyl)-1H-imidazo[4,5-c]quinolin-7-yl]prop-2-enoate], the melting point is > 250 °C.

Take `CCc1nc2c(N)nc3cc(CCC(N)=O)ccc3c2n1CC1CCOCC1` [Example 122, 3-[4-Amino-2-ethyl-1-(tetrahydro-2H-pyran-4-ylmethyl)-1H-imidazo[4,5-c]quinolin-7-yl]propanamide]: the melting point was in the range of 197 to 199 °C.

In turn, `CCOCc1nc2c(N)nc3cc(/C=C/Sc4ccccc4)ccc3c2n1CCCOC(C)C` (as salt: hydrobromid) [Example 1, 2-Ethoxymethyl-1-(3-isopropoxypropyl)-7-[(E)-2-(phenylthio)ethenyl]-1H-imidazo[4,5-c]quinolin-4-amine] gave a melting point of 220 to 221 °C.

As to `CCc1nc2c(N)nc3cc(CCC(=O)N4CCOCC4)ccc3c2n1CC(C)(C)O` [Example 98, 3-[4-Amino-2-ethyl-1-(2-hydroxy-2-methylpropyl)-1H-imidazo[4,5-c]quinolin-7-yl]-1-(morpholin-4-yl)propan-1-one], the melting point lay within 237 to 239 °C.

In the case of `CC(C)Cn1cnc2c(N)nc3ccc(CCCN4CCCC4=O)cc3c21` [Example 10, 1-{3-[4-Amino-1-(2-methylpropyl)-1H-imidazo[4,5-c]quinolin-8-yl]propyl}pyrrolidin-2-one], the melting point fell in the range of 174 to 175 °C.

`COCc1nc2c(N)nc3cc(CCC#N)ccc3c2n1CC(C)(C)O` [Example 110, 3-[4-Amino-1-(2-hydroxy-2-methylpropyl)-2-(methoxymethyl)-1H-imidazo[4,5-c]quinolin-7-yl]propanenitrile] showed a melting point of 191 to 193 °C.

Consider `CC(C)(O)Cn1cnc2c(N)nc3cc(CCC(=O)N4CCOCC4)ccc3c21` [Example 97, 3-[4-Amino-1-(2-hydroxy-2-methylpropyl)-1H-imidazo[4,5-c]quinolin-7-yl]-1-(morpholin-4-yl)propan-1-one], for which the melting point was in the range of 217 to 218 °C.

As to `CCc1nc2c(N)nc3cc(CCC(=O)N4CCSC4)ccc3c2n1CC(C)(C)O` [Example 103, 1-{4-Amino-2-ethyl-7-[3-oxo-3-(1,3-thiazolidin-3-yl)propyl]-1H-imidazo[4,5-c]quinolin-1-yl}-2-methylpropan-2-ol], the melting point was in the range of 210 to 212 °C.

What is called melting point is the temperature of the solid-liquid transition.
